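Method: 48-hour compound exposure of cells in 96-well plates, five concentrations, linear interpolation of endpoints. GI50 marks 50% less growth. TGI denotes the concentration required for complete inhibition of growth.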

Experimental findings from PubChem BioAssay (NCI) are described below.

Some test systems named below: EKVX NSCLC; HOP-62 NSCLC; OVCAR-3 ovarian; OVCAR-4 ovarian; OVCAR-5 ovarian; RPMI-8226 leukemia; SF-268 CNS; SNB-75 CNS; U251 CNS; CCRF-CEM leukemia.
Test in all cases: DTP human tumour cell line panel, 48 h

A word on the GI50: it is the concentration giving 50% growth inhibition. As usually defined, the TGI is the concentration at which net growth stops. For `O=C([CH-]C(=O)c1ccccc1)c1ccccc1.O=C([CH-]C(=O)c1ccccc1)c1ccccc1.O=C([CH-]C(=O)c1ccccc1)c1ccccc1.[Nd+3].[OH3+]`, the GI50 in the assay on EKVX NSCLC was 2.8 µM; in the assay on HOP-62 NSCLC, 2.62 µM; with OVCAR-3 ovarian it was 3.01 µM; in the assay on OVCAR-4 ovarian it was 6.63 µM; with OVCAR-5 ovarian, 39.5 µM; with RPMI-8226 leukemia, 3.47 µM. In addition, the figures for the GI50 in the assay with SF-268 CNS, in the assay on SNB-75 CNS and in the assay on U251 CNS were 4.16 µM, 2.91 µM and 9.22 µM, respectively. Further, the TGI in the assay on EKVX NSCLC was 13.9 µM; with HOP-62 NSCLC it was 9.96 µM; with OVCAR-3 ovarian, 14.8 µM; in the assay with OVCAR-4 ovarian it was 51.7 µM; with OVCAR-5 ovarian, over 100 µM; with RPMI-8226 leukemia, 26.4 µM. Further, the figures for the TGI with SF-268 CNS, with SNB-75 CNS and in the assay with U251 CNS were 31.1 µM, 7.23 µM and over 100 µM, respectively.

For `Cc1ccc(S(=O)(=O)NCCNC2=CC(=O)c3nc4ccccc4c4ccnc2c34)cc1`, the GI50 was 32.3 µM with EKVX NSCLC; 20.6 µM with HOP-62 NSCLC; 17.5 µM in the assay with OVCAR-3 ovarian; 26.8 µM in the assay on OVCAR-4 ovarian; 25 µM in the assay with OVCAR-5 ovarian; 10.5 µM in the assay with RPMI-8226 leukemia. Further, the GI50 in the assay on SF-268 CNS is 19.1 µM; with SNB-75 CNS, 18.3 µM; with U251 CNS, 24.7 µM. Further, the TGI was 89 µM in the assay with EKVX NSCLC; 61.3 µM in the assay with HOP-62 NSCLC; 46.4 µM with OVCAR-3 ovarian; over 100 µM in the assay with OVCAR-4 ovarian; 65.4 µM in the assay with OVCAR-5 ovarian; over 100 µM in the assay with RPMI-8226 leukemia. The results for the TGI in the assay on SF-268 CNS, with SNB-75 CNS and in the assay on U251 CNS were 52.3 µM, 41.3 µM and 63.9 µM, respectively.

Take `C=CC1[C@H]2COC(C)(C)O[C@@H]2CC(=O)C1(C)C` (some centres not stated): the TGI with EKVX NSCLC, in the assay with HOP-62 NSCLC, in the assay on OVCAR-4 ovarian, in the assay with OVCAR-5 ovarian, with SF-268 CNS and with SNB-75 CNS was over 100 µM throughout. For the same molecule, the TGI in the assay with U251 CNS is over 100 µM.

Consider `COc1ccc(N2Cc3cnc(Nc4ccccc4)nc3N([C@@H]3CC[C@@H](O)C3)C2=O)cc1`, for which the GI50 in the assay on CCRF-CEM leukemia is 5.98 µM; in the assay on HOP-62 NSCLC it was 8.87 µM; in the assay on OVCAR-3 ovarian it was 10.9 µM; with OVCAR-4 ovarian it was 2.43 µM; in the assay on OVCAR-5 ovarian, 5.54 µM; with RPMI-8226 leukemia, 5.72 µM. Also, the GI50 is 5.05 µM in the assay with SF-268 CNS, 0.377 µM with SNB-75 CNS and 1.01 µM with U251 CNS. Also, the TGI in the assay on CCRF-CEM leukemia, with HOP-62 NSCLC, in the assay with OVCAR-3 ovarian, in the assay on OVCAR-4 ovarian, in the assay with OVCAR-5 ovarian and in the assay on RPMI-8226 leukemia was over 25 µM throughout. Also, the figures for the TGI in the assay on SF-268 CNS, in the assay on SNB-75 CNS and in the assay on U251 CNS were over 25 µM, 3.58 µM and over 25 µM, respectively.

For `COC(=O)C(C(=O)C(=O)Nc1ccc(C(F)(F)F)cc1[N+](=O)[O-])c1csc(-n2nc(-c3ccccc3)cc2-c2ccccc2)n1` (configuration not stated), the TGI in the assay on CCRF-CEM leukemia, with HOP-62 NSCLC, in the assay on OVCAR-3 ovarian, in the assay on OVCAR-4 ovarian, in the assay with OVCAR-5 ovarian and in the assay on RPMI-8226 leukemia was over 100 µM each time. Further, the TGI in the assay on SNB-75 CNS and in the assay on U251 CNS was over 100 µM throughout.

Consider `OCCCOC(c1ccccc1)(c1ccccc1)c1ccccc1`, for which the TGI in the assay on CCRF-CEM leukemia, in the assay with HOP-62 NSCLC, in the assay on OVCAR-3 ovarian, with OVCAR-4 ovarian, in the assay on OVCAR-5 ovarian and in the assay with RPMI-8226 leukemia was over 100 µM each time. Besides, the TGI in the assay with SF-268 CNS is over 100 µM; in the assay on SNB-75 CNS, 62 µM; with U251 CNS it was over 100 µM.

In the case of `CCCCCCCNc1nc(C(=O)OCC)ncc1-c1ccc(C(F)(F)F)cc1`, the GI50 was 29.5 µM in the assay on CCRF-CEM leukemia; 55.7 µM in the assay with HOP-62 NSCLC; 32.6 µM in the assay with OVCAR-3 ovarian; 13.8 µM with OVCAR-4 ovarian; over 100 µM with OVCAR-5 ovarian; 17.8 µM with RPMI-8226 leukemia. The GI50 is 48.2 µM in the assay with SF-268 CNS, 41.7 µM with SNB-75 CNS and 34.1 µM in the assay with U251 CNS. In addition, the TGI was over 100 µM in the assay with CCRF-CEM leukemia; over 100 µM in the assay with HOP-62 NSCLC; over 100 µM in the assay with OVCAR-3 ovarian; over 100 µM with OVCAR-4 ovarian; over 100 µM in the assay with OVCAR-5 ovarian; 66.9 µM in the assay on RPMI-8226 leukemia. In addition, the TGI with SF-268 CNS, in the assay with SNB-75 CNS and with U251 CNS was over 100 µM throughout.

Regarding `O=C1C=CC=CC2CC=C[C@@H](O)C12` (some centres not stated), the TGI in the assay on CCRF-CEM leukemia was over 100 µM; with EKVX NSCLC, 63.5 µM; in the assay on HOP-62 NSCLC it was over 100 µM; with OVCAR-4 ovarian, over 100 µM; in the assay with OVCAR-5 ovarian, 63 µM; with RPMI-8226 leukemia, 15.3 µM. For the same molecule, the TGI with SF-268 CNS was determined as 54.5 µM.

As for `O=C1C(c2c[nH]c3ccccc23)=C(c2c[nH]c3ccccc23)C(=O)N1O`, the GI50 with CCRF-CEM leukemia, in the assay on HOP-62 NSCLC, in the assay with OVCAR-3 ovarian, in the assay with OVCAR-4 ovarian, in the assay with OVCAR-5 ovarian and with RPMI-8226 leukemia was over 25 µM each time. The GI50 in the assay on SF-268 CNS, in the assay on SNB-75 CNS and with U251 CNS was over 25 µM throughout. Moreover, the TGI with CCRF-CEM leukemia, in the assay on HOP-62 NSCLC, with OVCAR-3 ovarian, in the assay with OVCAR-4 ovarian, with OVCAR-5 ovarian and with RPMI-8226 leukemia was over 25 µM throughout. Further, the TGI in the assay on SF-268 CNS, in the assay on SNB-75 CNS and in the assay on U251 CNS was over 25 µM in each case.

`O=C(c1ccccc1)C1CCCCN1C(=O)c1ccccc1` (configuration not stated): the total growth inhibition concentration (TGI) in the assay with CCRF-CEM leukemia, with HOP-62 NSCLC, in the assay with OVCAR-3 ovarian, with OVCAR-4 ovarian, in the assay with RPMI-8226 leukemia and in the assay on SF-268 CNS was over 100 µM in each case. The TGI with SNB-75 CNS and with U251 CNS was over 100 µM in each case.

With `NCCCOCC(=O)O`, the TGI in the assay on EKVX NSCLC, in the assay with OVCAR-3 ovarian, in the assay with OVCAR-4 ovarian, with OVCAR-5 ovarian, with RPMI-8226 leukemia and with SF-268 CNS was over 100 µM each time. The TGI in the assay with SNB-75 CNS and in the assay with U251 CNS was over 100 µM each time.
